Assay results from US20130344008A1, “NONCARIOUS MATERIAL AND ANTICARIOUS AGENT CONTAINING RARE SUGAR” (priority 2006, published 2013).

Tests used:
[1] = tested on: S. mutans strain JCM5075; assay: Example 1: optical density and pH of S. mutans JCM5075 cultures in BHI broth with rare sugars, with or without sucrose; assay type: cell-based, Streptococcus mutans; details: for Optical density (OD) 12 hours later: OD600
Text: S. mutans strains characteristically form insoluble glucan on addition of sucrose, to generate acids and reduce the pH of the culture medium, which is considered to cause decalcification of teeth on dental surface to form decayed teeth (the reason why the strains are designated bacteria causing decayed teeth). JCM 5075 of S. mutans strains and the Brain Heart Infusion (BHI) broth were used to assay the optical density (the increase of the number of the bacterial cells) and the pH change in individual rare sugar solutions with or without sucrose added. As the rare sugars, there were used D-fructose, L-fructose, D-sorbose, L-sorbose, D-psicose, L-psicose, D-tagatose and L-tagatose. The rare sugars used were supplied from the Rare Sugar Research Center, the National University Corporation Kagawa University.
The strain JCM5075 thawed from −80° C. stock was cultured for 48 hours, and was adjusted to OD 0.3. 100 μl of the resulting culture was added to each 2-ml portion of the BHI broths under individual conditions, to assay the optical density and the pH 24 hours later (observation with naked eyes and absorbance: OD600).
After collecting a part of the liquid culture and centrifuging the culture, the pH of the resulting supernatant was measured with a pH meter. The results are shown in Table 2 (0, 6, 8, 12 and 24 hours after the addition of the bacteria to the BHI broth) and FIG. 3.

[2] = tested on: S. mutans strain MT 8148 (JCM5175); assay: Example 2: bacterial growth (OD 660 nm) and pH of S. mutans culture in phenol red broth with 1% test substance; assay type: cell-based, Streptococcus mutans; details: PRB broth, 37° C., 48 hours later; for OD: bacterial growth, absorbance at 660 nm
Protocol: D-Psicose and L-psicose were used to assay the actions thereof against S. mutans. D-Psicose and L-psicose were supplied from the Rare Sugar Research Center, the National University Corporation Kagawa University. The S. mutans strain MT 8148 (JCM5175) was plated in a Brain Heart Infusion broth supplemented with agar for culturing at 37° C. for 48 hours. The liquid culture was inoculated in a fresh Brain Heart Infusion broth, for culturing at 37° C. for 24 hours. The liquid culture was inoculated in a phenol red broth (PRB broth) containing a test substance at 1%, for culturing at 37° C.; the bacterial growth (absorbance at 660 nm: OD) and the pH were assayed 48 hours later. Asa control, glucose, fructose, sucrose and Xylitol were used. After culturing for a given period of time, additionally, the optical density of apart of the liquid culture was measured with an absorptiometer (OD 660 nm).

[3] = tested on: S. mutans strain (JCM5075); assay: Example 3: pH of S. mutans culture in BHI broth with test substance after 48-hour culturing; assay type: cell-based, Streptococcus mutans; details: 1% sucrose (control), BHI broth, after 48-hour culturing
Protocol: Allitol and D-sorbose were used to assay the actions thereof against S. mutans. Allitol and D-sorbose were supplied from the Rare Sugar Research Center, the National University Corporation Kagawa University. The S. mutans strain (JCM5075) was plated in a Brain Heart Infusion broth containing a 10% test substance, to measure the pH of the liquid culture after 48-hour culturing. As a control, 1% sucrose and 10% Xylitol were used.

[4] = tested on: S. mutans strain MT 8148 (JCM5175); assay: Example 4: cariostatic test with D-psicose and catechin, pH of culture in PRB broth; assay type: cell-based, Streptococcus mutans; details: for pH: PRB broth, 20 hours later
Protocol: A cariostatic test with D-psicose was carried out. Additionally, the effect of catechins added was also examined. D-Psicose was supplied from the Rare Sugar Research Center, the National University Corporation Kagawa University. As the catechin, Polyphenon 70A of Mitsui Norin Co., Ltd. was used. The S. mutans strain MT 8148 (JCM5175) was plated in a Brain Heart Infusion broth supplemented with agar, for culturing at 37° C. for 48 hours. Further, the resulting liquid culture was inoculated in a fresh Brain Heart Infusion broth, for culturing at 37° C. for 24 hours. The liquid preculture was inoculated in a phenol red broth (PRB broth) containing sugars and catechins at the following concentrations for culturing at 37° C.; 20 hours later, the pH was measured. As a control, sucrose was used.

[5] = tested on: S. mutans strain JCM5075; assay: Reference Example: formation of insoluble glucan with S. mutans, naked-eye observation; assay type: cell-based, Streptococcus mutans; details: sucrose added, BHI broth, anaerobic conditions, FIG. 1
Protocol: S. mutans strains characteristically form insoluble glucan on addition of sucrose, to reduce the pH of the culture medium, which is considered to cause decalcification of dental surface to form decayed teeth (the reason why the strains are designated bacteria causing decayed teeth). The S. mutans strain JCM5075 was plated in a Brain Heart Infusion (BHI) broth, for culturing under anaerobic conditions, to visually determine the bacterial growth (potency for forming insoluble glucan: optical density) with naked eyes.

[6] = tested on: caries; details: cited from earlier work
[7] = 5% test substance + 1% sucrose, BHI broth
[8] = 5% test substance, no sucrose, BHI broth
[9] = 10% test substance + 1% sucrose, BHI broth
[10] = 10% test substance, no sucrose, BHI broth

OC[C@H]1O[C@@](CO)(O[C@H]2O[C@H](CO)[C@@H](O)[C@H](O)[C@H]2O)[C@@H](O)[C@@H]1O [sucrose, reference compound]
pH 0 hour later ([1]; 1% sucrose alone, BHI broth): 7.4
pH 6 hours later ([1]; 1% sucrose alone, BHI broth): 7.2
pH 8 hours later ([1]; 1% sucrose alone, BHI broth): 7.2
pH 12 hours later ([1]; 1% sucrose alone, BHI broth): 6.7
pH 24 hours later ([1]; 1% sucrose alone, BHI broth): 4.7
pH change 24 hours later (in words) ([1]; 1% sucrose, or 10% Xylitol+1% sucrose, or 10% fructose+1% sucrose, FIG. 3): highly inclined to acidity
Optical density (OD) 12 hours later ([1]; 1% test substance, BHI broth): 0.060
precipitation of bacterial masses (insoluble glucan) under observation with naked eyes ([1]; addition of 1% sucrose, addition of 10% D-fructose, 24 hours later): caused the precipitation of bacterial masses (insoluble glucan)
pH [2]: 3.9
OD [2]: 0.14
pH [3]: 4.0
pH ([4]; 0.25% sucrose alone, 37° C.): 4.5
formation of insoluble glucan observed with naked eyes [5]: formed insoluble glucan

O=C(CO)[C@H](O)[C@H](O)[C@H](O)CO [D-psicose]
pH 0 hour later [1, 7]: 7.4
pH 6 hours later [1, 7]: 7.3
pH 8 hours later [1, 7]: 7.2
pH 12 hours later [1, 7]: 7.2
pH 24 hours later [1, 7]: 6.4
pH 0 hour later [1, 8]: 7.4
pH 6 hours later [1, 8]: 7.3
pH 8 hours later [1, 8]: 7.2
pH 12 hours later [1, 8]: 7.2
pH 24 hours later [1, 8]: 7.0
pH 0 hour later [1, 9]: 7.3
pH 6 hours later [1, 9]: 7.2
pH 8 hours later [1, 9]: 7.2
pH 12 hours later [1, 9]: 7.2
pH 24 hours later [1, 9]: 7.1
Optical density (OD) 12 hours later ([1]; 10% test substance, BHI broth): 0.158
pH 0 hour later [1, 10]: 7.3
pH 6 hours later [1, 10]: 7.2
pH 8 hours later [1, 10]: 7.2
pH 12 hours later [1, 10]: 7.2
pH 24 hours later [1, 10]: 7.2
suppression of the pH reduction ([1]; 24 hours later, also with 1% sucrose addition, FIG. 3): most highly suppressed the pH reduction
suppression of OD increase compared with no addition ([1]; BHI broth, FIG. 2 / Table 1): suppression of OD increase was observed
pH [2]: 5.9
OD [2]: 0.02
pH ([4]; 3.3% test substance + 0.25% sucrose): 4.4
pH ([4]; 5.0% test substance + 0.25% sucrose): 5.5
action of suppressing the pH reduction in a culture medium with addition of sucrose ([4]; D-psicose at a concentration of 5%, 0.25% sucrose): exerted an action of suppressing the pH reduction

Oc1cc(O)c2c(c1)O[C@H](c1cc(O)c(O)c(O)c1)[C@@H](O)C2 [gallocatechin]
effective concentration against caries in the test system [6]: 125 µg/mL
